Active and inactive are the calls of the source. No cut-off for these calls is given here.
Assays:
[1] = tested on: GES1; assay: Cytotoxicity against human GES-1 cells after 24 hrs by MTT assay; type: cell-based; settings: for IC50: Homo sapiens, GES1, 24 h; for Activity: human, ges1, 24 h
[2] = tested on: HL-60; assay: Induction of mitochondrial membrane potential loss in human HL60 cells at 1 uM after 24 hrs by JC-1 staining-based flow cytometry; type: functional, cell-based
[3] = tested on: Liver; assay: Induction of mitochondrial dysfunction in Wistar rat liver assessed as swelling up to 30 uM for 60 mins; type: functional; settings: mitochondria
[4] = organism: Homo sapiens; assay: Effect on glutathione peroxidase catalytic activity in human HL60 cells; type: cell-based
[5] = tested on: HL-60; assay: Induction of apoptosis in human HL60 cells assessed as apoptotic body formation at 0.75 to 1.5 uM after 24 hrs by Hoechst 33342 staining-based laser scanning confocal microscopic analysis; type: functional, cell-based
[6] = tested on: HL-60; assay: Induction of cell death in human HL60 cells at 1 to 1.5 uM after 24 hrs in presence of antioxidant resveratrol by trypan blue assay; type: functional, cell-based
[7] = tested on: HL-60; assay: Induction of apoptosis in human HL60 cells assessed as incomplete cell membrane at 0.75 to 1.5 uM after 24 hrs by Hoechst 33342 staining-based laser scanning confocal microscopic analysis; type: functional
[8] = tested on: GES1; assay: Cytotoxicity against human GES-1 cells after 48 hrs by MTT assay; type: cell-based; settings: for IC50: Homo sapiens, GES1, 48 h; for Activity: human, ges1, 48 h
[9] = tested on: HL-60; assay: Cytotoxicity against human HL60 cells by MTT assay; type: functional, cell-based; settings: TDE = time-dependent effect
[10] = tested on: HL-60; assay: Induction of apoptosis in human HL60 cells assessed as condensed nuclei at 0.75 to 1.5 uM after 24 hrs by Hoechst 33342 staining-based laser scanning confocal microscopic analysis; type: functional, cell-based
[11] = tested on: MCF7; assay: Cytotoxicity against human MCF7 cells after 24 hrs by MTT assay; type: functional, cell-based; settings: for IC50: MCF7, 24 h
[12] = biological target: T1, Thioredoxin reductase 1, cytoplasmic (Homo sapiens) (UniProt Q16881); assay: Inhibition of TrxR in human HL60 cells using thioredoxin as substrate up to 24 hrs measured for 5 mins by UV-Vis spectrophotometric analysis; type: cell-based
T1 sequence (whole entry): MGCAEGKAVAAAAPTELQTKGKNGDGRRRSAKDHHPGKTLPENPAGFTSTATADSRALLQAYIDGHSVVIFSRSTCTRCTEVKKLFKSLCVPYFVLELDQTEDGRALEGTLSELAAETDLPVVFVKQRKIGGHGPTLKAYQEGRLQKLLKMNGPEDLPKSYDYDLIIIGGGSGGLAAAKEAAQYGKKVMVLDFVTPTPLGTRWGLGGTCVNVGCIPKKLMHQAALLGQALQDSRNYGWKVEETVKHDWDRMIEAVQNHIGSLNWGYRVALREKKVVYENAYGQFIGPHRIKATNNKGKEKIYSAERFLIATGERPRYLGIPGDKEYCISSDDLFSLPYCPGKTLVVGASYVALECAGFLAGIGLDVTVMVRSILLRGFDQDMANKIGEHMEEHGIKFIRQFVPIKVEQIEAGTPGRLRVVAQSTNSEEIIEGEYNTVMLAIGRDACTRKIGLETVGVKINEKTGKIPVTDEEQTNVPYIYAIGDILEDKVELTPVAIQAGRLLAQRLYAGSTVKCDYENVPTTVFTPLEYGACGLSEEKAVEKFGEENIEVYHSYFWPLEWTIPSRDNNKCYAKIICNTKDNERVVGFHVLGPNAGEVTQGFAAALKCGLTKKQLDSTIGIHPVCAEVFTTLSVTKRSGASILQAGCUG

[13] = tested on: SGC-7901; assay: Cytotoxicity against human SGC7901 cells by MTT assay; type: functional, cell-based; settings: TDE = time-dependent effect
[14] = tested on: HL-60; assay: Induction of cell death in human HL60 cells at 1 to 1.5 uM after 24 hrs in presence of […] BSO by MTT assay; type: functional, cell-based
[15] = tested on: HL-60; assay: Induction of apoptosis in human HL60 cells assessed as chromatin condensation at 0.75 to 1.5 uM after 24 hrs by Hoechst 33342 staining-based laser scanning confocal microscopic analysis; type: functional, cell-based
[16] = tested on: HL-60; assay: Potentiation of H2O2-induced cytotoxicity in human HL60 cells assessed as induction of cell death at 1.5 to 2 uM preincubated for 6 hrs followed by compound washout and subsequent H2O2 addition measured after 18 hrs by MTT assay; type: functional, cell-based
[17] = tested on: HL-60; assay: Induction of cell death in human HL60 cells at 1 to 1.5 uM after 24 hrs in presence of antioxidant lipoic acid by trypan blue assay; type: functional, cell-based
[18] = tested on: HL-60; assay: Induction of apoptosis in human HL60 cells assessed as necrotic cells at 0.75 to 1.5 uM after 24 hrs by Annexin V-FITC/propidium iodide staining-based flow cytometry; type: functional
[19] = tested on: HL-60; assay: Induction of cell death in human HL60 cells at 1 to 1.5 uM after 24 hrs in presence of antioxidant DTT by trypan blue assay; type: functional, cell-based
[20] = tested on: MCF7; assay: Cytotoxicity against human MCF7 cells after 48 hrs by MTT assay; type: functional, cell-based; settings: for IC50: MCF7, 48 h
[21] = tested on: HL-60; assay: Induction of apoptosis in human HL60 cells assessed as DNA incision in bulk of cells at 0.75 to 1.5 uM after 24 hrs by Hoechst 33342 staining-based laser scanning confocal microscopic analysis; type: functional, cell-based
[22] = tested on: HL-60; assay: Induction of cell death in human HL60 cells at 1 to 1.5 uM after 24 hrs in presence of antioxidant L-ascorbic acid by trypan blue assay; type: functional, cell-based
[23] = tested on: HL-60; assay: Induction of ROS generation in human HL60 cells assessed as reduction in intracellular thiols up to 2.5 uM incubated for 12 to 24 hrs by DTNB titration method; type: functional, cell-based
[24] = biological target: T2, Glutathione reductase, mitochondrial (Homo sapiens) (UniProt P00390); assay: Effect on glutathione reductase catalytic activity in human HL60 cells; type: cell-based
T2 sequence (whole entry): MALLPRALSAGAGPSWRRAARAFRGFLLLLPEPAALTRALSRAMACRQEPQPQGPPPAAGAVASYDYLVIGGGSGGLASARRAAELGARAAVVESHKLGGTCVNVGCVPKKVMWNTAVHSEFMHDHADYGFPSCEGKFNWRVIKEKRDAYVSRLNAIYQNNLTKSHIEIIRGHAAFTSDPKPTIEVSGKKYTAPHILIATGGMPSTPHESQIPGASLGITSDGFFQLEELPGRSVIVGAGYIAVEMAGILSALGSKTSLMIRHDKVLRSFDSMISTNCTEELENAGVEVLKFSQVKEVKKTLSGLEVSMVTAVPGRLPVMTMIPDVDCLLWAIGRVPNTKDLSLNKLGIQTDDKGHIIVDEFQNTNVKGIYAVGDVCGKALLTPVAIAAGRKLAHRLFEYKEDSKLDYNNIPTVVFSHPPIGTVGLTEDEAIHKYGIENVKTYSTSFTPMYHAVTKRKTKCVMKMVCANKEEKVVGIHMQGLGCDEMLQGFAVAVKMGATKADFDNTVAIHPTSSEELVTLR

[25] = tested on: Liver; assay: Induction of mitochondrial dysfunction in Wistar rat liver assessed as swelling at 20 uM in presence of calcium related inhibitor EGTA; type: functional; settings: mitochondria
[26] = biological target: T1, Thioredoxin reductase 1, cytoplasmic (Homo sapiens); assay: Inhibition of TrxR in human HL60 cells assessed as residual activity at 1.5 using thioredoxin as substrate measured for 5 mins by UV-Vis spectrophotometric analysis; type: cell-based

Structure (SMILES): O=C(Nc1ccc([As]2SCCCS2)cc1)c1ccccc1O
- IC50 [1]: 13.4 µM
- Activity [1]: Dose-dependent effect
- Activity [2]: Active
- Activity [3]: Active
- Activity [4]: inactive
- Activity [5]: Active
- Activity [6]: Active
- Activity [7]: Active
- IC50 [8]: 9.07 µM
- Activity [8]: Dose-dependent effect
- Activity [9]: Tde
- Activity [10]: Active
- Activity [11]: Dose-dependent effect
- IC50 [11]: 11.9 µM
- inhibition [12]: Dose-dependent effect
- Activity [13]: Tde
- Activity [14]: Active
- Activity [15]: Active
- Activity [16]: Active
- Activity [17]: inactive
- Activity [18]: <=0.2%
- Activity [19]: inactive
- Activity [20]: Dose-dependent effect
- IC50 [20]: 7.89 µM
- Activity [21]: Active
- Activity [22]: Active
- Activity [23]: Active
- Activity [24]: inactive
- Activity [25]: inactive
- inhibition [26]: Dose-dependent effect

Structure (SMILES): Oc1ccccc1/C=N/c1ccc([As]2SCCCS2)cc1
- IC50 [1]: 5.99 µM
- Activity [1]: Dose-dependent effect
- Activity [2]: Active
- Activity [3]: Active
- Activity [4]: inactive
- Activity [5]: Active
- Activity [6]: Active
- Activity [7]: Active
- IC50 [8]: 3.55 µM
- Activity [8]: Dose-dependent effect
- Activity [9]: Tde
- Activity [10]: Active
- Activity [11]: Dose-dependent effect
- IC50 [11]: 5.7 µM
- inhibition [12]: Dose-dependent effect
- Activity [13]: Tde
- Activity [14]: Active
- Activity [15]: Active
- Activity [16]: Active
- Activity [17]: inactive
- Activity [18]: <=0.2%
- Activity [19]: inactive
- Activity [20]: Dose-dependent effect
- IC50 [20]: 2.44 µM
- Activity [21]: Active
- Activity [22]: Active
- Activity [23]: Active
- Activity [24]: inactive
- Activity [25]: inactive
- inhibition [26]: Dose-dependent effect
